Test results from PMC5218480 (PLoS ONE, 2017).

System: MV-4-11 cells
Experiment: Gene expression microarray analysis (Affymetrix PrimeView) and GSEA
Assay type: cell-based, human
Set-up: RFU PODN (11730768_x_at) / Fold change /veh PODN (11730768_x_at) / RFU LINC00158 (11744669_a_at) / Fold change /veh LINC00158 (11744669_a_at) / RFU DUSP10 (11751237_a_at) / Fold change /veh DUSP10 (11751237_a_at) / RFU ID3 (11757404_x_at) / Fold change /veh ID3 (11757404_x_at) / RFU PLEKHG5 (11737974_s_at) / Fold change /veh PLEKHG5 (11737974_s_at) / RFU LRRC4B (11730491_at) / Fold change /veh LRRC4B (11730491_at) / RFU GIMAP4 (11747438_a_at) / Fold change /veh GIMAP4 (11747438_a_at) / RFU KRT8 (11758183_x_at) / Fold change /veh KRT8 (11758183_x_at) / RFU CNN1 (11734310_a_at) / Fold change /veh CNN1 (11734310_a_at) / RFU VPS37D (11726825_at) / Fold change /veh VPS37D (11726825_at) / RFU C10orf10 (11716522_x_at) / Fold change /veh C10orf10 (11716522_x_at) / RFU KIR2DL2 /// KIR2DL4 /// KIR2DL5A /// KIR2DL5B /// KIR2DS1 /// KIR2DS2 /// KIR2DS3 /// KIR2DS4 /// KIR3DL3 /// KIR3DL3 /// KIR3DS1 (11738374_at) / Fold change /veh KIR2DL2 /// KIR2DL4 /// KIR2DL5A /// KIR2DL5B /// KIR2DS1 /// KIR2DS2 /// KIR2DS3 /// KIR2DS4 /// KIR3DL3 /// KIR3DL3 /// KIR3DS1 (11738374_at) / RFU C1QL1 (11718748_at) / Fold change /veh C1QL1 (11718748_at) / RFU TMPRSS4 (11747572_a_at) / Fold change /veh TMPRSS4 (11747572_a_at) / RFU HAMP (11756126_x_at) / Fold change /veh HAMP (11756126_x_at) / RFU RNFT2 (11725882_a_at) / Fold change /veh RNFT2 (11725882_a_at) / RFU NR4A2 (11747474_a_at) / Fold change /veh NR4A2 (11747474_a_at) / RFU ABCC12 (11746883_a_at) / Fold change /veh ABCC12 (11746883_a_at) / RFU TMEM136 (11760407_x_at) / Fold change /veh TMEM136 (11760407_x_at) / RFU CLDN22 /// WWC2 (11732394_at) / Fold change /veh CLDN22 /// WWC2 (11732394_at) / RFU HLA-DPB1 (11760878_x_at) / Fold change /veh HLA-DPB1 (11760878_x_at) / RFU SPINT1 (11716480_a_at) / Fold change /veh SPINT1 (11716480_a_at) / RFU GAP43 (11754022_s_at) / Fold change /veh GAP43 (11754022_s_at) / RFU A4GNT (11735810_at) / Fold change /veh A4GNT (11735810_at) / RFU PRB3 (11715151_x_at) / Fold change /veh PRB3 (11715151_x_at) / RFU TUBB4B (11761932_at) / Fold change /veh TUBB4B (11761932_at) / RFU CAPN14 (11732068_a_at) / Fold change /veh CAPN14 (11732068_a_at) / RFU TMCC2 (11721928_a_at) / Fold change /veh TMCC2 (11721928_a_at) / RFU IRGQ (11745062_a_at) / Fold change /veh IRGQ (11745062_a_at) / RFU FAM174B (11720279_a_at) / Fold change /veh FAM174B (11720279_a_at) / RFU TMPRSS4 (11748680_a_at) / Fold change /veh TMPRSS4 (11748680_a_at) / RFU FAM212B (11763350_a_at) / Fold change /veh FAM212B (11763350_a_at) / RFU PLEKHG5 (11743358_a_at) / Fold change /veh PLEKHG5 (11743358_a_at) / RFU ZSCAN30 (11745921_a_at) / Fold change /veh ZSCAN30 (11745921_a_at) / RFU CMKLR1 (11741424_a_at) / Fold change /veh CMKLR1 (11741424_a_at) / RFU LOC101060620 /// MAPK8IP1 (11723275_at) / Fold change /veh LOC101060620 /// MAPK8IP1 (11723275_at) / RFU SPTSSB (11747773_x_at) / Fold change /veh SPTSSB (11747773_x_at) / RFU PRSS12 (11739890_at) / Fold change /veh PRSS12 (11739890_at) / RFU BIN1 (11741810_x_at) / Fold change /veh BIN1 (11741810_x_at) / RFU WNT11 (11732464_a_at) / Fold change /veh WNT11 (11732464_a_at) / RFU C10orf10 (11716521_a_at) / Fold change /veh C10orf10 (11716521_a_at) / RFU C5orf56 (11738089_at) / Fold change /veh C5orf56 (11738089_at) / RFU CYB561 (11721691_x_at) / Fold change /veh CYB561 (11721691_x_at) / RFU ANKRD19P (11752326_a_at) / Fold change /veh ANKRD19P (11752326_a_at) / RFU OR2T12 /// OR2T33 /// OR2T8 (11738714_s_at) / Fold change /veh OR2T12 /// OR2T33 /// OR2T8 (11738714_s_at) / RFU VCAN (11748164_a_at) / Fold change /veh VCAN (11748164_a_at) / RFU JSRP1 (11732532_at) / Fold change /veh JSRP1 (11732532_at) / RFU KRTAP10-11 (11738290_x_at) / Fold change /veh KRTAP10-11 (11738290_x_at) / RFU MYO3A (11730013_a_at) / Fold change /veh MYO3A (11730013_a_at) / RFU EBF3 (11725865_a_at) / Fold change /veh EBF3 (11725865_a_at) / RFU CAMK2N1 (11719241_x_at) / Fold change /veh CAMK2N1 (11719241_x_at) / RFU C5orf56 (11738088_a_at) / Fold change /veh C5orf56 (11738088_a_at) / RFU OLFML3 (11715873_a_at) / Fold change /veh OLFML3 (11715873_a_at) / RFU LOC100653217 /// NTM (11731650_a_at) / Fold change /veh LOC100653217 /// NTM (11731650_a_at) / RFU MAPK11 (11762145_a_at) / Fold change /veh MAPK11 (11762145_a_at) / RFU FIZ1 (11724087_x_at) / Fold change /veh FIZ1 (11724087_x_at) / RFU OASL (11726364_x_at) / Fold change /veh OASL (11726364_x_at) / RFU SOX15 (11748057_x_at) / Fold change /veh SOX15 (11748057_x_at) / RFU CD79A (11719716_a_at) / Fold change /veh CD79A (11719716_a_at) / RFU HIST1H1D (11736915_at) / Fold change /veh HIST1H1D (11736915_at) / RFU CASKIN2 (11723855_a_at) / Fold change /veh CASKIN2 (11723855_a_at) / RFU LOC730098 (11760151_x_at) / Fold change /veh LOC730098 (11760151_x_at) / RFU OR4N2 (11742367_at) / Fold change /veh OR4N2 (11742367_at) / RFU PRRT2 (11749266_a_at) / Fold change /veh PRRT2 (11749266_a_at) / RFU SNX32 (11753110_a_at) / Fold change /veh SNX32 (11753110_a_at) / RFU CDHR5 (11726645_a_at) / Fold change /veh CDHR5 (11726645_a_at) / RFU RCAN1 (11760418_a_at) / Fold change /veh RCAN1 (11760418_a_at) / RFU FAM167A (11723789_a_at) / Fold change /veh FAM167A (11723789_a_at) / RFU FAM26E (11764081_at) / Fold change /veh FAM26E (11764081_at) / RFU ISYNA1 (11749810_s_at) / Fold change /veh ISYNA1 (11749810_s_at) / RFU ACY1 (11761880_at) / Fold change /veh ACY1 (11761880_at) / RFU 11764098_at / Fold change /veh 11764098_at / RFU SAMD14 (11745864_x_at) / Fold change /veh SAMD14 (11745864_x_at) / RFU NPB (11741838_a_at) / Fold change /veh NPB (11741838_a_at) / RFU TMPRSS6 (11731388_a_at) / Fold change /veh TMPRSS6 (11731388_a_at) / RFU KRTAP10-2 (11738614_at) / Fold change /veh KRTAP10-2 (11738614_at) / RFU ARHGAP8 /// PRR5-ARHGAP8 (11727945_x_at) / Fold change /veh ARHGAP8 /// PRR5-ARHGAP8 (11727945_x_at) / RFU KRTAP5-7 /// NADSYN1 (11734609_at) / Fold change /veh KRTAP5-7 /// NADSYN1 (11734609_at) / RFU RASL12 (11751679_a_at) / Fold change /veh RASL12 (11751679_a_at) / RFU CDKN2B (11736163_a_at) / Fold change /veh CDKN2B (11736163_a_at) / RFU PRF1 (11729649_at) / Fold change /veh PRF1 (11729649_at) / RFU, ZNF638 /// ZNF638-IT1 / Fold change vs veh, ZNF638 /// ZNF638-IT1 / RFU, PANK3 / Fold change vs veh, PANK3 / RFU, SH3YL1 / Fold change vs veh, SH3YL1 / RFU, ZEB2 / Fold change vs veh, ZEB2 / RFU, NRIP1 / Fold change vs veh, NRIP1 / RFU, PTTG1IP / Fold change vs veh, PTTG1IP / RFU, CAPN2 / Fold change vs veh, CAPN2 / RFU, MED14 / Fold change vs veh, MED14 / RFU, SNORA58 / Fold change vs veh, SNORA58 / RFU, C1orf63 / Fold change vs veh, C1orf63 / RFU, LRRFIP1 / Fold change vs veh, LRRFIP1 / RFU, NDUFAF7 / Fold change vs veh, NDUFAF7 / RFU, SLC12A2 / Fold change vs veh, SLC12A2 / RFU, IBTK / Fold change vs veh, IBTK / RFU, ESF1 / Fold change vs veh, ESF1 / Fold change vs veh, TMEM50B / RFU, TAOK1 / Fold change vs veh, TAOK1 / RFU, ACBD3 / Fold change vs veh, ACBD3 / RFU, TMA16 / Fold change vs veh, TMA16 / RFU, RWDD3 / Fold change vs veh, RWDD3 / RFU, BCAT1 / Fold change vs veh, BCAT1 / RFU, EDEM3 / Fold change vs veh, EDEM3 / RFU, TMEM33 / Fold change vs veh, TMEM33 / RFU, WDR75 / Fold change vs veh, WDR75 / RFU, AHCTF1 / Fold change vs veh, AHCTF1 / RFU, TFRC / Fold change vs veh, TFRC / RFU, ZDHHC17 / Fold change vs veh, ZDHHC17 / RFU, NOM1 / Fold change vs veh, NOM1 / RFU, ARL8B / Fold change vs veh, ARL8B / RFU, ZBTB11 / Fold change vs veh, ZBTB11 / RFU, TAMM41 / Fold change vs veh, TAMM41 / RFU, KIAA1704 /// LOC100996395 / Fold change vs veh, KIAA1704 /// LOC100996395 / RFU, ING1 / Fold change vs veh, ING1 / RFU, TRMT61B / Fold change vs veh, TRMT61B / RFU, FUBP3 / Fold change vs veh, FUBP3 / RFU, TP53 / Fold change vs veh, TP53 / RFU, TNKS2 / Fold change vs veh, TNKS2 / RFU, ZFP14 / Fold change vs veh, ZFP14 / RFU, ACTR2 / Fold change vs veh, ACTR2 / RFU, PPP3R1 / Fold change vs veh, PPP3R1 / RFU, PIK3R1 / Fold change vs veh, PIK3R1 / RFU, HNRNPA1 / Fold change vs veh, HNRNPA1 / RFU, RNF170 / Fold change vs veh, RNF170 / RFU, ZNF28 / Fold change vs veh, ZNF28 / RFU, RNGTT / Fold change vs veh, RNGTT / RFU, OGT / Fold change vs veh, OGT / RFU, BRD1 / Fold change vs veh, BRD1 / RFU, MARS / Fold change vs veh, MARS / RFU, ZNF655 / Fold change vs veh, ZNF655 / RFU, FAHD1 / Fold change vs veh, FAHD1 / RFU, BDP1 / Fold change vs veh, BDP1 / RFU, LRRCC1 / Fold change vs veh, LRRCC1 / RFU, ARID1A / Fold change vs veh, ARID1A / RFU, ZNF146 / Fold change vs veh, ZNF146 / RFU, ZNF330 / Fold change vs veh, ZNF330 / RFU, GPN3 / Fold change vs veh, GPN3 / RFU, C9orf123 / Fold change vs veh, C9orf123 / RFU, N4BP2L2 / Fold change vs veh, N4BP2L2 / RFU, ARFIP1 / Fold change vs veh, ARFIP1 / RFU, FAM179B / Fold change vs veh, FAM179B / RFU, BCL10 / Fold change vs veh, BCL10 / RFU, UHRF1BP1L / Fold change vs veh, UHRF1BP1L / RFU, BET1 / Fold change vs veh, BET1 / RFU, CNOT2 / Fold change vs veh, CNOT2 / RFU, ZNF268 / Fold change vs veh, ZNF268 / Fold change vs veh, ZNF507 / RFU, DGCR2 / Fold change vs veh, DGCR2 / RFU, WDSUB1 / Fold change vs veh, WDSUB1 / Fold change vs veh, HSP90B1 /// MIR3652 / RFU, ADSS / Fold change vs veh, ADSS / RFU, GK / Fold change vs veh, GK / RFU, ZNF148 / Fold change vs veh, ZNF148 / RFU, TAF9 / Fold change vs veh, TAF9 / RFU, SLC1A5 / Fold change vs veh, SLC1A5 / RFU, SLMO2 / Fold change vs veh, SLMO2 / RFU, ABCC4 / Fold change vs veh, ABCC4 / RFU, LOC101060439 /// RAP1B / Fold change vs veh, LOC101060439 /// RAP1B / RFU, RFX7 / Fold change vs veh, RFX7 / RFU, GTPBP10 / Fold change vs veh, GTPBP10 / RFU, CNEP1R1 / Fold change vs veh, CNEP1R1 / RFU, BIVM-ERCC5 /// ERCC5 / Fold change vs veh, BIVM-ERCC5 /// ERCC5 / RFU, ILF3 / Fold change vs veh, ILF3 / RFU 11762660_at / Fold change /veh 11762660_at / RFU VCAN (11757783_s_at) / Fold change /veh VCAN (11757783_s_at) / RFU DDX43 (11728927_at) / Fold change /veh DDX43 (11728927_at) / RFU KRT8 (11758188_x_at) / Fold change /veh KRT8 (11758188_x_at) / RFU NKD1 (11759106_at) / Fold change /veh NKD1 (11759106_at) / RFU SRD5A1 (11742802_a_at) / Fold change /veh SRD5A1 (11742802_a_at) / RFU TPSAB1 /// TPSB2 (11721975_s_at) / Fold change /veh TPSAB1 /// TPSB2 (11721975_s_at) / RFU GSTM3 (11746129_a_at) / Fold change /veh GSTM3 (11746129_a_at) / RFU IL23R (11737362_x_at) / Fold change /veh IL23R (11737362_x_at) / RFU TMEM51 (11727254_a_at) / Fold change /veh TMEM51 (11727254_a_at) / RFU PIWIL2 (11732686_x_at) / Fold change /veh PIWIL2 (11732686_x_at) / RFU ORM1 (11744905_x_at) / Fold change /veh ORM1 (11744905_x_at) / RFU CCDC152 (11743942_at) / Fold change /veh CCDC152 (11743942_at) / RFU ECM1 (11717891_a_at) / Fold change /veh ECM1 (11717891_a_at) / RFU IL23R (11748794_a_at) / Fold change /veh IL23R (11748794_a_at) / RFU TNFAIP8L3 (11732012_x_at) / Fold change /veh TNFAIP8L3 (11732012_x_at) / RFU MBOAT4 (11741988_at) / Fold change /veh MBOAT4 (11741988_at) / RFU 11764193_at / Fold change /veh 11764193_at / RFU TMEM53 (11763286_at) / Fold change /veh TMEM53 (11763286_at) / RFU MAGEB2 (11727129_at) / Fold change /veh MAGEB2 (11727129_at) / RFU TMEM200A (11744735_a_at) / Fold change /veh TMEM200A (11744735_a_at) / RFU CCDC152 (11751479_a_at) / Fold change /veh CCDC152 (11751479_a_at) / RFU FAM211A (11726209_a_at) / Fold change /veh FAM211A (11726209_a_at) / RFU RGS16 (11746705_a_at) / Fold change /veh RGS16 (11746705_a_at) / RFU VCAN (11755009_s_at) / Fold change /veh VCAN (11755009_s_at) / RFU RHOB (11743442_s_at) / Fold change /veh RHOB (11743442_s_at) / RFU RGS16 (11720943_a_at) / Fold change /veh RGS16 (11720943_a_at) / RFU RGS16 (11720944_at) / Fold change /veh RGS16 (11720944_at) / RFU, VPS4B / Fold change vs veh, VPS4B / RFU, CREB1 / Fold change vs veh, CREB1 / RFU, DNAJC13 / Fold change vs veh, DNAJC13 / RFU, GNAQ / Fold change vs veh, GNAQ / RFU, CDK5R1 / Fold change vs veh, CDK5R1 / RFU, ZRANB3 / Fold change vs veh, ZRANB3 / RFU, CUL4A / Fold change vs veh, CUL4A / RFU, CCNY / Fold change vs veh, CCNY / RFU, UFL1 / Fold change vs veh, UFL1 / RFU, COG3 / Fold change vs veh, COG3 / RFU, DIAPH2 / Fold change vs veh, DIAPH2 / RFU, SKA2 / Fold change vs veh, SKA2 / RFU, AFF3 / Fold change vs veh, AFF3 / RFU, LMF1 / Fold change vs veh, LMF1 / RFU, IPO11 / Fold change vs veh, IPO11 / RFU, DFFB / Fold change vs veh, DFFB / RFU, FOXP1 / Fold change vs veh, FOXP1 / RFU, CARD8 / Fold change vs veh, CARD8 / RFU, STRN3 / Fold change vs veh, STRN3 / RFU, ADK / Fold change vs veh, ADK / RFU, RASSF2 / Fold change vs veh, RASSF2 / RFU, WIPF1 / Fold change vs veh, WIPF1 / RFU, LARP1B / Fold change vs veh, LARP1B / RFU, RASA1 / Fold change vs veh, RASA1 / RFU, RB1 / Fold change vs veh, RB1 / RFU, PPFIA1 / Fold change vs veh, PPFIA1 / RFU, MAT2A / Fold change vs veh, MAT2A / RFU, CCT5 / Fold change vs veh, CCT5 / RFU, WDR92 / Fold change vs veh, WDR92 / RFU, CUX1 / Fold change vs veh, CUX1 / RFU, TTC7A / Fold change vs veh, TTC7A / RFU, TMEM135 / Fold change vs veh, TMEM135 / RFU, DEPTOR / Fold change vs veh, DEPTOR / RFU, CPM / Fold change vs veh, CPM / RFU, DNAJB6 / Fold change vs veh, DNAJB6 / RFU, CACNA2D3 / Fold change vs veh, CACNA2D3 / RFU, DTX4 / Fold change vs veh, DTX4 / RFU, TFCP2 / Fold change vs veh, TFCP2 / RFU, GMCL1 /// GMCL1P1 / Fold change vs veh, GMCL1 /// GMCL1P1 / RFU, AEBP2 / Fold change vs veh, AEBP2 / RFU, SNHG1 /// SNORD22 /// SNORD25 /// SNORD26 /// SNORD27 /// SNORD28 /// SNORD29 /// SNORD31 / Fold change vs veh, SNHG1 /// SNORD22 /// SNORD25 /// SNORD26 /// SNORD27 /// SNORD28 /// SNORD29 /// SNORD31 / Fold change (Aza/veh), C12orf56 (ProbeSet 11735607_a_at) / Fold change (ACY-1035/veh), C12orf56 (ProbeSet 11735607_a_at) / Fold change (Aza/veh), FGFR1OP (ProbeSet 11751329_s_at) / Fold change (ACY-1035/veh), FGFR1OP (ProbeSet 11751329_s_at) / Fold change (Aza/veh), VPS36 (ProbeSet 11739960_a_at) / Fold change (ACY-1035/veh), VPS36 (ProbeSet 11739960_a_at) / RFU SYPL1 (11715823_x_at) / Fold change /veh SYPL1 (11715823_x_at) / RFU IGFBP7 (11715501_s_at) / Fold change /veh IGFBP7 (11715501_s_at) / RFU REEP3 (11722064_at) / Fold change /veh REEP3 (11722064_at) / RFU IGLL1 (11728026_x_at) / Fold change /veh IGLL1 (11728026_x_at): dose or concentration left out as unconfirmed
Details: MV-4-11 cells, 48 hours

Nc1ccc(-c2cccs2)cc1NC(=O)c1ccc2c(c1)cc(C1CC1)n2CCN1CCOCC1 [ACY-1035]
Fold change /veh TPSAB1 /// TPSB2 (11721975_s_at): 0.95
